From patent publication US20260224524A1, “A PHARMACEUTICAL COMPOSITION TARGETING MUTANT P53 AND HER2” (DR DOZO LABORATORIES, priority 2023, published 2026)
In brackets after ≈: the same amount, converted by molar mass.

Key:
Assay type in all cases: cell-based
[1] = test system: Human Breast Cancer Cell Line MDA-MB-231; experiment: Growth inhibition (% control growth, LC50, TGI, GI50) MDA-MB-231
Procedure: The therapeutic effect of […] (peak 5) and SA2 (peak 4) is evaluated against human […] cancer cell line MDA-MB-231 by calculating the percentage growth inhibition, drug concentration of test compound needed to inhibit cell growth by 50% (GI50) values.
The therapeutic effect of SACC is evaluated against human […] cancer cell lines MDA-MB-231 by calculating the percentage growth inhibition, drug concentration of test compound needed to inhibit cell growth by 50% (GI50) values.

[2] = test system: Human Breast Cancer Cell Line MDA-MB-231; experiment: as above; settings: Molar drug concentrations calculated from graph
[3] = test system: Human Pancreatic Cancer Cell Line Mia-Pa-Ca-2; experiment: Growth inhibition (% control growth, LC50, TGI, GI50) Mia-Pa-Ca-2; settings: Mia-Pa-Ca-2; for GI50: Homo sapiens, MIA PaCa-2; for GI50 / TGI: Molar drug concentrations calculated from graph
Procedure: The therapeutic effect of SA1 (peak 5) and SA2 (peak 4) is evaluated against human pancreatic cancer cell line Mia-Pa-Ca-2 by calculating the percentage growth inhibition, drug concentration of test compound needed to inhibit cell growth by 50% (GI50) values.
The therapeutic effect of SACC is evaluated against human […] cancer cell line Mia-Pa-Ca-2 by calculating the percentage growth inhibition, drug concentration of test compound needed to inhibit cell growth by 50% (GI50) values.

[4] = test system: Human Lung Cancer Cell Line A-549; experiment: Growth inhibition (% control growth, LC50, TGI, GI50) A-549; settings: A-549
Procedure: The therapeutic effect of SA1 (peak 5) and SA2 (peak 4) is evaluated against human lung cancer cell line A-549 by calculating the percentage growth inhibition, drug concentration of test compound needed to inhibit cell growth by 50% (GI50) values.
The therapeutic effect of SACC is evaluated against human lung cancer cell line A-549 by calculating the percentage growth inhibition, drug concentration of test compound needed to inhibit cell growth by 50% (GI50) values.

[5] = test system: lung cancer cell; experiment: Cell viability MTT assay of SACC fractions on lung cells; settings: 24 h, read-out: inhibitory concentrations, lung cancer cell growth
Procedure: The effect of SACC fractions (peak 2, peak 3, peak 4 and peak 5) on viability of lung cells was determined by MTT assay.
Cells were seeded in 96 wells plate at a density of 1×10^4 per well in 200 μL of respective complete culture medium containing 10% FBS and 1% antibiotics. After 70% confluency, cells were treated with the respective doses (indicated in the graph) of SACC and its fraction in complete culture medium for 24 h. After incubation for a specified time at 37° C. in a humidified incubator, dye MTT (5 mg/mL in PBS; diluted in 10 mL of serum-free medium) was added to each well and incubated for 2 h, after which the plate was centrifuged at 1,000 rpm for 5 min at 4° C. After careful removal of the medium, 0.1 mL buffered DMSO was added to each well. The absorbance was recorded on a microplate reader at the wavelength of 540 nm. The effect SACC and its fraction on cell growth inhibition was assessed as percent cell viability, where vehicle-treated cells were taken as 100% viable.

Cc1cc(=O)cco1 (single isomer, unassigned) [SA1 (peak 5), 2-methyl-4H-pyran-4-one]
% Control Growth ([1]; 10^−4M, Average Values): 35.0% | % Control Growth ([1]; 10^−4M, Experiment 1): 43.7% | % Control Growth ([1]; 10^−4M, Experiment 2): 27.1% | % Control Growth ([1]; 10^−4M, Experiment 3): 34.3% | % Control Growth ([1]; 10^−5M, Average Values): 58.6% | % Control Growth ([1]; 10^−5M, Experiment 1): 75.2% | % Control Growth ([1]; 10^−5M, Experiment 2): 44.0% | % Control Growth ([1]; 10^−5M, Experiment 3): 56.4% | % Control Growth ([1]; 10^−6M, Average Values): 75.4% | % Control Growth ([1]; 10^−6M, Experiment 1): 90.3% | % Control Growth ([1]; 10^−6M, Experiment 2): 69.9% | % Control Growth ([1]; 10^−6M, Experiment 3): 66.1% | % Control Growth ([1]; 10^−7M, Average Values): 60.8% | % Control Growth ([1]; 10^−7M, Experiment 1): 75.4% | % Control Growth ([1]; 10^−7M, Experiment 2): 50.9% | % Control Growth ([1]; 10^−7M, Experiment 3): 56.0% | TGI [2]: 4.03 µg/mL (≈ 36.6 µM) | GI50 [3]: 1.08 ng/mL (≈ 0.00984 µM) | % Control Growth ([3]; 10^−4M, Average Values): 49.2% | % Control Growth ([3]; 10^−4M, Experiment 1): 30.0% | % Control Growth ([3]; 10^−4M, Experiment 2): 63.5% | % Control Growth ([3]; 10^−4M, Experiment 3): 54.2% | % Control Growth ([3]; 10^−5M, Average Values): 108.5% | % Control Growth ([3]; 10^−5M, Experiment 1): 97.0% | % Control Growth ([3]; 10^−5M, Experiment 2): 112.7% | % Control Growth ([3]; 10^−5M, Experiment 3): 115.9% | % Control Growth ([3]; 10^−6M, Average Values): 113.4% | % Control Growth ([3]; 10^−6M, Experiment 1): 111.0% | % Control Growth ([3]; 10^−6M, Experiment 2): 116.4% | % Control Growth ([3]; 10^−6M, Experiment 3): 112.6% | % Control Growth ([3]; 10^−7M, Average Values): 105.7% | % Control Growth ([3]; 10^−7M, Experiment 1): 108.1% | % Control Growth ([3]; 10^−7M, Experiment 2): 95.5% | % Control Growth ([3]; 10^−7M, Experiment 3): 113.5% | TGI [3]: 0.7992 µg/mL (≈ 7.26 µM) | % Control Growth ([4]; 10^−4M, Average Values): 65.2% | % Control Growth ([4]; 10^−4M, Experiment 1): 64.0% | % Control Growth ([4]; 10^−4M, Experiment 2): 65.1% | % Control Growth ([4]; 10^−4M, Experiment 3): 66.6% | % Control Growth ([4]; 10^−5M, Average Values): 81.9% | % Control Growth ([4]; 10^−5M, Experiment 1): 86.4% | % Control Growth ([4]; 10^−5M, Experiment 2): 78.3% | % Control Growth ([4]; 10^−5M, Experiment 3): 81.1% | % Control Growth ([4]; 10^−6M, Average Values): 79.1% | % Control Growth ([4]; 10^−6M, Experiment 1): 83.6% | % Control Growth ([4]; 10^−6M, Experiment 2): 77.7% | % Control Growth ([4]; 10^−6M, Experiment 3): 75.9% | % Control Growth ([4]; 10^−7M, Average Values): 79.7% | % Control Growth ([4]; 10^−7M, Experiment 1): 80.8% | % Control Growth ([4]; 10^−7M, Experiment 2): 80.6% | % Control Growth ([4]; 10^−7M, Experiment 3): 77.6%

Cc1ccc(O)oc1=O (single isomer, unassigned) [SA2 (peak 4), 6-hydroxy-3-methyl-2H-pyran-2-one]
IC50 [5]: 1.02 µg/mL (≈ 8.09 µM) | % Control Growth ([1]; 10^−4M, Average Values): 27.9% | % Control Growth ([1]; 10^−4M, Experiment 1): 50.1% | % Control Growth ([1]; 10^−4M, Experiment 2): 18.1% | % Control Growth ([1]; 10^−4M, Experiment 3): 15.5% | % Control Growth ([1]; 10^−5M, Average Values): 47.2% | % Control Growth ([1]; 10^−5M, Experiment 1): 45.5% | % Control Growth ([1]; 10^−5M, Experiment 2): 42.0% | % Control Growth ([1]; 10^−5M, Experiment 3): 54.1% | % Control Growth ([1]; 10^−6M, Average Values): 62.8% | % Control Growth ([1]; 10^−6M, Experiment 1): 68.2% | % Control Growth ([1]; 10^−6M, Experiment 2): 59.7% | % Control Growth ([1]; 10^−6M, Experiment 3): 60.5% | % Control Growth ([1]; 10^−7M, Average Values): 57.0% | % Control Growth ([1]; 10^−7M, Experiment 1): 81.0% | % Control Growth ([1]; 10^−7M, Experiment 2): 42.6% | % Control Growth ([1]; 10^−7M, Experiment 3): 47.3% | GI50 ([1]; Homo sapiens, Molar drug concentrations calculated from graph): 2.38 µg/mL (≈ 18.9 µM) | TGI [2]: 0.1727 µg/mL (≈ 1.37 µM) | GI50 [3]: 0.301 ng/mL (≈ 0.00239 µM) | % Control Growth ([3]; 10^−4M, Average Values): 40.5% | % Control Growth ([3]; 10^−4M, Experiment 1): 40.0% | % Control Growth ([3]; 10^−4M, Experiment 2): 36.6% | % Control Growth ([3]; 10^−4M, Experiment 3): 45.0% | % Control Growth ([3]; 10^−5M, Average Values): 100.5% | % Control Growth ([3]; 10^−5M, Experiment 1): 76.9% | % Control Growth ([3]; 10^−5M, Experiment 2): 116.3% | % Control Growth ([3]; 10^−5M, Experiment 3): 108.3% | % Control Growth ([3]; 10^−6M, Average Values): 112.4% | % Control Growth ([3]; 10^−6M, Experiment 1): 114.3% | % Control Growth ([3]; 10^−6M, Experiment 2): 115.6% | % Control Growth ([3]; 10^−6M, Experiment 3): 107.5% | % Control Growth ([3]; 10^−7M, Average Values): 102.1% | % Control Growth ([3]; 10^−7M, Experiment 1): 95.4% | % Control Growth ([3]; 10^−7M, Experiment 2): 111.8% | % Control Growth ([3]; 10^−7M, Experiment 3): 99.0% | TGI [3]: 0.1054 µg/mL (≈ 0.836 µM) | % Control Growth ([4]; 10^−4M, Average Values): 54.9% | % Control Growth ([4]; 10^−4M, Experiment 1): 54.4% | % Control Growth ([4]; 10^−4M, Experiment 2): 51.7% | % Control Growth ([4]; 10^−4M, Experiment 3): 58.6% | % Control Growth ([4]; 10^−5M, Average Values): 74.8% | % Control Growth ([4]; 10^−5M, Experiment 1): 81.5% | % Control Growth ([4]; 10^−5M, Experiment 2): 72.0% | % Control Growth ([4]; 10^−5M, Experiment 3): 70.9% | % Control Growth ([4]; 10^−6M, Average Values): 77.4% | % Control Growth ([4]; 10^−6M, Experiment 1): 74.0% | % Control Growth ([4]; 10^−6M, Experiment 2): 80.1% | % Control Growth ([4]; 10^−6M, Experiment 3): 78.2% | % Control Growth ([4]; 10^−7M, Average Values): 77.3% | % Control Growth ([4]; 10^−7M, Experiment 1): 80.0% | % Control Growth ([4]; 10^−7M, Experiment 2): 76.9% | % Control Growth ([4]; 10^−7M, Experiment 3): 74.9% | GI50 ([4]; Homo sapiens, A549, Molar drug concentrations calculated from graph): 3.4 ng/mL (≈ 0.0269 µM)

O=C1CC2=CC(O)=CC(=O)C2=CO1 (single isomer, unassigned) [peak 2, 6-hydroxy-3H-isochromene-3, 8(4H)-dione]
IC50 [5]: 1.04 µg/mL (≈ 5.84 µM)

Cc1ccc2[nH]cc(C(=O)O)c2c1 (single isomer, unassigned) [peak 3, 5-methyl-1H-indole-3-carboxylic acid]
IC50 [5]: 1.06 µg/mL (≈ 6.05 µM)
